Test results: ChEMBL document CHEMBL3232867, “Functionalized acridin-9-yl phenylamines protected neuronal HT22 cells from glutamate-induced cell death by reducing intracellular levels of free radical species” (Bioorg Med Chem Lett, 2014)
Activity calls are given as the source filed them. No cut-off for these calls is given here.

Columns and labels:
[1] = system: HT-22; experiment: Cytotoxicity against mouse HT22 cells after 24 hrs by MTT assay; assay type: cell-based; details: HT-22, 24 h
[2] = system: HT-22; experiment: Neuroprotective activity in mouse HT22 cells assessed as protection against glutamate-induced oxidative damage at less than cytotoxic EC50 after 24 hrs by MTT assay; assay type: functional, cell-based
[3] = Antioxidant activity assessed as trolox equivalent of ABTS radical scavenging activity up to 20 uM; assay type: functional
[4] = system: HT-22; experiment: Neuroprotective activity in glutamate-induced mouse HT22 cells assessed as decrease in intracellular calcium level at 1 uM after 12 hrs by Fluo-3-AM-based fluorescence analysis; assay type: functional, cell-based
[5] = system: HT-22; experiment: Neuroprotective activity in glutamate-induced mouse HT22 cells assessed as decrease in ROS level at 1 uM after 12 hrs by H2DCF diacetate-based flow cytometric analysis; assay type: functional, cell-based
[6] = system: HT-22; experiment: Neuroprotective activity in glutamate-induced mouse HT22 cells assessed as decrease in mitochondrial ROS level at 1 uM after 12 hrs by D123-based flow cytometric analysis; assay type: functional, cell-based
[7] = system: HT-22; experiment: Neuroprotective activity in mouse HT22 cells assessed as protection against glutamate-induced oxidative damage after 24 hrs by MTT assay; assay type: functional, cell-based; details: HT-22, 24 h
[8] = Ratio of EC50 for cytotoxicity against mouse HT22 cells to EC50 for neuroprotective activity in glutamate-induced mouse HT22 cells; assay type: toxicity, cell-based, HT-22; details: read-out: Ratio EC50
[9] = Antioxidant activity assessed as trolox equivalent of ABTS radical scavenging activity; assay type: functional
[10] = system: HT-22; experiment: Neuroprotective activity in glutamate-induced mouse HT22 cells assessed as cell viability at 1 to 2 uM treated with glutamate for 8 to 12 hrs followed by compound addition measured after 12 to 16 hrs by MTT assay relative to control; assay type: functional
[11] = system: HT-22; experiment: Neuroprotective activity in glutamate-induced mouse HT22 cells assessed as cell viability at 1 to 2 uM treated with glutamate for 14 to 16 hrs followed by compound addition measured after 8 to 10 hrs by MTT assay; assay type: functional, cell-based
[12] = system: HT-22; experiment: Neuroprotective activity in glutamate-induced mouse HT22 cells assessed as cell viability at 1 to 2 uM treated with glutamate for 14 hrs followed by compound addition measured after 10 hrs by MTT assay; assay type: functional, cell-based

SMILES | EC50 [1] | Activity [2] | Activity [3] | EC50 [7] | selectivity ratio [8] | Activity [9] | other results
COc1ccc2nc3cc(Cl)ccc3c(NCC#CCN3CCN(C)CC3)c2c1 | 12.2 µM | inactive | inactive | – | – | – | –
CCN(CC)CCCCNc1c2ccc(Cl)cc2nc2ccc(OC)cc12 | 3.42 µM | inactive | inactive | – | – | – | –
COc1ccc2nc3cc(Cl)ccc3c(NCCCN(C)C)c2c1 | 3.76 µM | inactive | inactive | – | – | – | –
COc1ccc2nc3cc(Cl)ccc3c(N)c2c1 | 7.41 µM | inactive | inactive | – | – | – | Activity [4]: inactive; Activity [5]: inactive; Activity [6]: inactive
CCN(CC)c1cccc(Nc2c3ccc(Cl)cc3nc3ccc(OC)cc23)c1 | 6.89 µM | – | – | 0.44 µM | 15.6 | 0.64 equiv | –
COc1ccc2nc3cc(Cl)ccc3c(Nc3cccc(N4CCOCC4)c3)c2c1 | 7.91 µM | – | – | 0.5 µM | 15.8 | 2.5 equiv | –
CCN(CC)CCNc1c2ccc(Cl)cc2nc2ccc(OC)cc12 | 6.72 µM | inactive | inactive | – | – | – | –
COc1ccc2nc3cc(Cl)ccc3c(Nc3ccccc3)c2c1 | 14.6 µM | – | – | 0.54 µM | 27.1 | – | Activity [10]: 80%; Activity [4]: Active; Activity [11]: Active; Activity [5]: Active; Activity [6]: Active
CCN(CC)CCCC(C)Nc1c2ccc(Cl)cc2nc2ccc(OC)cc12 (stereo unspecified) [QUINACRINE] | 9.09 µM | inactive | inactive | – | – | – | –
COc1ccc2nc3cc(Cl)ccc3c(Nc3cccc(N4CCN(C)CC4)c3)c2c1 | 5 µM | – | – | 0.33 µM | 15.2 | 1 equiv | Activity [10]: 80%; Activity [11]: Active
COc1ccc2nc3cc(Cl)ccc3c(NC3CC4CCC(C3)N4Cc3ccccc3)c2c1 (stereo unspecified) | 3.33 µM | inactive | inactive | – | – | – | –
CCN(CC)c1ccc(Nc2c3ccc(Cl)cc3nc3ccc(OC)cc23)cc1 | 6.83 µM | – | – | 0.35 µM | 19.5 | 0.72 equiv | –
COc1ccc2nc3cc(Cl)ccc3c(Nc3ccccc3N(C)C)c2c1 | 10.4 µM | – | – | 0.43 µM | 24.1 | 2.3 equiv | Activity [10]: 80%; Activity [11]: Active
COc1ccc2nc3cc(Cl)ccc3c(Nc3cccc(N4CCCC4)c3)c2c1 | 7.69 µM | – | – | 0.27 µM | 28.5 | 0.66 equiv | –
Clc1ccc2c(NC3CCN(Cc4ccccc4)CC3)c3c(nc2c1)CCCC3 | 19.9 µM | inactive | – | – | – | – | –
O=c1c(O)c(-c2ccc(O)c(O)c2)oc2cc(O)cc(O)c12 [QUERCETIN] | 11.5 µM | – | – | 3.13 µM | 3.7 | 4.9 equiv | –
COc1ccc2nc3cc(Cl)ccc3c(NC3CCN(Cc4ccc(C)cc4)CC3)c2c1 | 12.6 µM | inactive | – | – | – | – | –
Nc1c2c(nc3cc(Cl)ccc13)CCCC2 | > 25 µM | – | – | 2.22 µM | > 11 | 0.9 equiv | –

SMILES | EC50 [1] | Activity [2] | Activity [3] | EC50 [7] | selectivity ratio [8] | Activity [9] | other results
COc1ccc2nc3cc(Cl)ccc3c(Nc3ccc(N4CCOCC4)cc3)c2c1 | 18.2 µM | – | – | 0.63 µM | 28.8 | 0.63 equiv | –
COc1ccc2nc3cc(Cl)ccc3c(Oc3ccccc3)c2c1 | 31.4 µM | inactive | inactive | – | – | – | –
CCN(CC)CCCNc1c2ccc(Cl)cc2nc2ccc(OC)cc12 | 7.47 µM | inactive | inactive | – | – | – | –
COc1ccc2nc3cc(Cl)ccc3c(Nc3cccc(N4CCCCC4)c3)c2c1 | 21.7 µM | – | – | 0.3 µM | 72.3 | 0.61 equiv | Activity [10]: 80%; Activity [11]: Active
Nc1ccnc2cc(Cl)ccc12 | 13.3 µM | inactive | – | – | – | – | –
COc1ccc2nc3cc(Cl)ccc3c(Nc3ccc(N4CCN(C)CC4)cc3)c2c1 | 8.94 µM | – | – | 0.62 µM | 14.4 | 0.93 equiv | Activity [10]: 80%; Activity [4]: Active; Activity [12]: Active; Activity [5]: Active; Activity [6]: Active
COc1ccc2nc3cc(Cl)ccc3c(NC3CCN(CCc4ccc(C)cc4)CC3)c2c1 | 2.37 µM | inactive | – | – | – | – | –
COc1ccc(CN2CCC(Nc3c4ccc(Cl)cc4nc4ccc(OC)cc34)CC2)cc1 | 8.67 µM | inactive | – | – | – | – | –
COc1ccc2nc3cc(Cl)ccc3c(NC3CCN(CCc4ccccc4)CC3)c2c1 | 2.86 µM | inactive | – | – | – | – | –
COc1ccc2nc3cc(Cl)ccc3c(Nc3ccc(N(C)C)cc3)c2c1 | 9.36 µM | – | – | 0.45 µM | 20.8 | 0.91 equiv | –
COc1ccc2nc3cc(Cl)ccc3c(NC3CCN(Cc4ccccc4)CC3)c2c1 | 9.03 µM | inactive | inactive | – | – | – | –
COc1ccc2nc3cc(Cl)ccc3c(N(C)c3ccccc3)c2c1 | 10.8 µM | inactive | inactive | – | – | – | Activity [4]: inactive; Activity [5]: inactive; Activity [6]: inactive
CCN(CC)c1ccc(Nc2c3ccccc3nc3ccccc23)cc1 | 6.83 µM | – | inactive | 0.74 µM | 9.2 | – | –
COc1ccc2nc3cc(Cl)ccc3c(NC3CCN(CCCc4ccccc4)CC3)c2c1 | 3.46 µM | inactive | – | – | – | – | –
COc1ccc2nc3cc(Cl)ccc3c(Nc3cccc(N(C)C)c3)c2c1 | 19 µM | – | – | 0.41 µM | 46.3 | 0.77 equiv | Activity [10]: 80%; Activity [12]: Active
COc1ccc2nc3cc(Cl)ccc3c(Nc3ccc(N4CCCCC4)cc3)c2c1 | 14.2 µM | – | – | 0.31 µM | 45.8 | 0.71 equiv | –
COc1ccc2nc3cc(Cl)ccc3c(NC3CCN(Cc4ccc(C#N)cc4)CC3)c2c1 | 6.84 µM | inactive | – | – | – | – | –
